pEC50: −log10 of the molar value. In brackets after ≈: the same amount, converted by molar mass. Where two headings read alike, the source gives them in different places. Starred links: 1 amine or outer side, 2 acyl side, 3 side chain; linkers in the order of their positions; H or OH if unused. Positions of bridges follow the written chain, without caps; N, C: chain ends. Residues, ends and D or L forms follow the SMILES beside them. *: point of attachment. C20 diacid = O=C(O)CCCCCCCCCCCCCCCCCCC(=O)*; γGlu = O=C(O)[C@H](CCC(=O)[*:2])N[*:1]
Legend:
[1] = Assay (IX) pK, determination of T½ in mini-pig; type: in vivo, Göttingen mini-pigs; settings: male, Göttingen, iv, 2 nmol/kg; minipig; plasma terminal half-life
[2] = molecular target: T1, human amylin receptor (amylin 3(a) receptor: human calcitonin receptor + RAMP-3) (Homo sapiens, UniProt O60896+P30988); experiment: Assay (II)a functional CRE-luciferase assay, human amylin receptor; type: cell-based; settings: Table 2; BHK amylin 3(a)-receptor/CRE-luc cells
T1 construct: expressed in transfected cells; host or cells: BHK570
T1 sequence (P30988 25-474): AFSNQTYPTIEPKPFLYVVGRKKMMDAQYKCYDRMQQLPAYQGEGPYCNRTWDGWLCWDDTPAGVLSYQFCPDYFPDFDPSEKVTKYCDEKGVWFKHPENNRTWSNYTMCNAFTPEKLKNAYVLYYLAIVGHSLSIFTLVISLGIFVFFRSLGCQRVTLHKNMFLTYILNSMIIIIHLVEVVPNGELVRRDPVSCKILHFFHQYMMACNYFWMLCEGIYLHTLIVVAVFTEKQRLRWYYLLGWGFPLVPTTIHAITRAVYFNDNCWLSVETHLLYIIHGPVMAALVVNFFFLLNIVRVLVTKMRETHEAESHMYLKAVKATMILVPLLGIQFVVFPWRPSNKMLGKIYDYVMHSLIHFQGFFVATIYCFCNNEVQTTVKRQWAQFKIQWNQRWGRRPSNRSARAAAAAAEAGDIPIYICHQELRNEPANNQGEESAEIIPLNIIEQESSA
T1 sequence (O60896 24-148 partner): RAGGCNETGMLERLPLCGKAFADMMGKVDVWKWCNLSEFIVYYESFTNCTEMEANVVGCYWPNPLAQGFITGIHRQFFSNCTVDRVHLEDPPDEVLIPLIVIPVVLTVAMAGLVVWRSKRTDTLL

[3] = molecular target: T2, human calcitonin receptor (Homo sapiens, UniProt P30988); experiment: Assay (II)a functional CRE-luciferase assay, human calcitonin receptor; type: cell-based; settings: Table 7; human calcitonin (CTa) receptor
T2 construct: expressed in transfected cells; host or cells: BHK570
T2 sequence (P30988 25-474): T1 sequence (P30988 25-474)

[4] = molecular target: T3, rat calcitonin (a) receptor (Rattus norvegicus, UniProt P32214); experiment: Assay (II)b functional cAMP FlashPlate assay, rat calcitonin receptor; type: cell-based; settings: Table 11; read-out: CTa receptor rat EC50
T3 construct: expressed in transfected cells; host or cells: BHK tk'ts 13
T3 sequence (P32214 25-479 isoform P32214-2 limits assumed): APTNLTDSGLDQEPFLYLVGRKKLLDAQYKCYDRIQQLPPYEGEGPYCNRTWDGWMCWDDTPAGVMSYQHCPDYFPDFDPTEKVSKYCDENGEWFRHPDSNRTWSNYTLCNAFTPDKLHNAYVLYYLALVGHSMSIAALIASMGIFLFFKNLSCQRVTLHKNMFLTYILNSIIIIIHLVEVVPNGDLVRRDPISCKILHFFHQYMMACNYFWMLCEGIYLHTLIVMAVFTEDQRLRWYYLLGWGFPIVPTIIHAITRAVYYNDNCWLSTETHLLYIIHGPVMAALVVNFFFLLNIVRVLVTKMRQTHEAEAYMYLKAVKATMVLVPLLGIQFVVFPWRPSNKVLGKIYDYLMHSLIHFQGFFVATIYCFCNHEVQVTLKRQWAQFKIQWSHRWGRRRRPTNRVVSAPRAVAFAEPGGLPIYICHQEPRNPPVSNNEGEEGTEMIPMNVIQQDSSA
Summary of the method: (§1)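 BHK tk'ts 13 cells transiently transfected with rat calcitonin(a) receptor, alone or with rat RAMP3 (amylin 3(a)), were stimulated 24 hours later with sample for 30 min in buffer containing IBMX. cAMP measured by competitive radioactive FlashPlate assay, scintillation read after 3 h detection incubation.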

[5] = Assay (IV) determination of solubility; type: physicochemical
Summary of the method: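 Polypeptide in water (~500 nmol/ml stock) was mixed 1:1 with 100 mM buffers from pH 3.0 to 8.0 (glycylglycine pH 3.0–5.0; bistrispropane pH 6.0–8.0). After 18 hours at room temperature, samples were centrifuged and the polypeptide remaining in solution was quantified by HPLC.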

[6] = molecular target: T4, rat amylin 3(a) receptor (rat calcitonin(a) receptor + rat RAMP3) (Rattus norvegicus, UniProt P32214+Q9JJ73); experiment: Assay (II)b functional cAMP FlashPlate assay, rat amylin receptor; type: cell-based; settings: Table 11
T4 construct: expressed in transfected cells; host or cells: BHK tk'ts 13
T4 sequence (P32214 25-479 isoform P32214-2 limits assumed): T3 sequence (P32214 25-479 isoform P32214-2 limits assumed)
T4 sequence (Q9JJ73 23-147 partner): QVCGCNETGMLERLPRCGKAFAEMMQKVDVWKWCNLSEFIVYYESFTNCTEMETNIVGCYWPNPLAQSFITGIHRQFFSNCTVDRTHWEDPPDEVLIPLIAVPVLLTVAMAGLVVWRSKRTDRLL
Summary of the method: as §1

[7] = bistrispropane buffer, pH 6, pH 6.0, read-out: Solubility pH 6.0
[8] = bistrispropane buffer, pH 6.5, pH 6.5, read-out: Solubility pH 6.5
[9] = bistrispropane buffer, pH 7, pH 7.0, 18 hours at room temperature, Table 3, read-out: Solubility pH 7.0
[10] = bistrispropane buffer, pH 7, pH 7.0, Table 8, read-out: Solubility pH 7.0
[11] = bistrispropane buffer, pH 7, pH 7.0, Table 9, read-out: Solubility pH 7.0
[12] = bistrispropane buffer, pH 7, pH 7.0, read-out: Solubility pH 7.0
[13] = bistrispropane buffer, pH 7.5, pH 7.5, Table 9, read-out: Solubility pH 7.5
[14] = bistrispropane buffer, pH 7.5, pH 7.5, read-out: Solubility pH 7.5
[15] = glycylglycine buffer, pH 3, pH 3.0, read-out: Solubility pH 3.0
[16] = glycylglycine buffer, pH 4, pH 4.0, 18 hours at room temperature, Table 2, read-out: Solubility pH 4.0
[17] = glycylglycine buffer, pH 4, pH 4.0, read-out: Solubility pH 4.0
[18] = glycylglycine buffer, pH 5, pH 5.0, read-out: Solubility pH 5.0
[19] = bistrispropane buffer, pH 8, pH 8.0, read-out: Solubility pH 8.0

SMILES	half-life [1] [h]	pEC50 [2]	pEC50 [3]	pEC50 [4]	solubility at 18 h [5, 7] [µM]	solubility at 18 h [5, 8] [µM]	solubility at 18 h [5, 9] [µM]	solubility at 18 h [5, 10] [µM]	solubility at 18 h [5, 11] [µM]	solubility at 18 h [5, 12] [µM]	solubility at 18 h [5, 13] [µM]	solubility at 18 h [5, 14] [µM]	solubility at 18 h [5, 15] [µM]	solubility at 18 h [5, 16] [µM]	solubility at 18 h [5, 17] [µM]	solubility at 18 h [5, 18] [µM]	solubility at 18 h ([5]; pH 8.0, read-out: Solubility pH 8.0) [µM]	pEC50 [6]	solubility at 18 h [5, 19] [µM]
CC[C@H](C)[C@H](NC(=O)[C@@H]1CCCN1C(=O)CNC(=O)[C@H](Cc1ccccc1)NC(=O)[C@H](CC(N)=O)NC(=O)[C@H](CC(N)=O)NC(=O)[C@H](CO)NC(=O)[C@H](CO)NC(=O)[C@H](Cc1c[nH]cn1)NC(=O)[C@H](CCCNC(=N)N)NC(=O)[C@H](CC(C)C)NC(=O)[C@H](Cc1ccccc1)NC(=O)[C@H](CCC(=O)O)NC(=O)[C@H](C)NC(=O)[C@H](CC(C)C)NC(=O)[C@H](CCCNC(=N)N)NC(=O)[C@H](CCC(N)=O)NC(=O)[C@@H](NC(=O)[C@H](C)NC(=O)[C@@H]1CSSC[C@H](NC(=O)[C@H](CCCCN)NC(=O)CC[C@H](NC(=O)CCCCCCCCCCCCCCCCCCC(=O)O)C(=O)O)C(=O)N[C@@H](CC(N)=O)C(=O)N[C@@H]([C@@H](C)O)C(=O)N[C@@H](C)C(=O)N[C@@H]([C@@H](C)O)C(=O)N1)[C@@H](C)O)C(=O)N[C@@H](CC(C)C)C(=O)N1CCC[C@H]1C(=O)N1CCC[C@H]1C(=O)N[C@H](C(=O)N[C@@H](CC(N)=O)C(=O)N[C@H](C(=O)NCC(=O)N[C@@H](CO)C(=O)N[C@@H](Cc1cnc[nH]1)C(=O)N[C@H](C(=O)N[C@@H](Cc1ccc(O)cc1)C(N)=O)[C@@H](C)O)C(C)C)[C@@H](C)O [Example 57, N-alpha-[(S)-4-Carboxy-4-(19-carboxynonadecanoylamino)butyryl]-[Glu14,Arg17,His35]-pramlintide] ({C20 diacid-γGlu}-KCNTATCATQRLAEFLRHSSNNFGPILPPTNVGSHTY-NH2; disulfide 2-7)	68	9.95	9.41	8.55	> 200	> 200	> 200	> 200	> 200	> 200	121 (≈ 544 µg/mL)	121 (≈ 544 µg/mL)	> 200	> 200	> 200	> 200	80 (≈ 360 µg/mL)	9.29	–
CC[C@H](C)[C@H](NC(=O)[C@@H]1CCCN1C(=O)CNC(=O)[C@H](Cc1ccccc1)NC(=O)[C@H](CC(N)=O)NC(=O)[C@H](CC(N)=O)NC(=O)[C@H](CO)NC(=O)[C@H](CO)NC(=O)[C@H](Cc1cnc[nH]1)NC(=O)[C@H](Cc1cnc[nH]1)NC(=O)[C@H](CC(C)C)NC(=O)[C@H](Cc1ccccc1)NC(=O)[C@H](CCC(=O)O)NC(=O)[C@H](C)NC(=O)[C@H](CC(C)C)NC(=O)[C@H](CCCNC(=N)N)NC(=O)[C@H](CCC(N)=O)NC(=O)[C@@H](NC(=O)[C@H](C)NC(=O)[C@@H]1CSSC[C@H](NC(=O)[C@H](Cc2cnc[nH]2)NC(=O)[C@H](Cc2cnc[nH]2)NC(=O)[C@H](Cc2cnc[nH]2)NC(=O)CC[C@H](NC(=O)CCCCCCCCCCCCCCCCCCC(=O)O)C(=O)O)C(=O)N[C@@H](CC(N)=O)C(=O)N[C@@H]([C@@H](C)O)C(=O)N[C@@H](C)C(=O)N[C@@H]([C@@H](C)O)C(=O)N1)[C@@H](C)O)C(=O)N[C@@H](CC(C)C)C(=O)N1CCC[C@H]1C(=O)N1CCC[C@H]1C(=O)N[C@H](C(=O)N[C@@H](CC(N)=O)C(=O)N[C@H](C(=O)NCC(=O)N[C@@H](CO)C(=O)N[C@@H](CC(N)=O)C(=O)N[C@H](C(=O)N[C@@H](Cc1ccc(O)cc1)C(N)=O)[C@@H](C)O)C(C)C)[C@@H](C)O [Example 11, N-alpha-[(S)-4-Carboxy-4-(19-carboxynonadecanoylamino)butyryl]-His-His-[His1,Glu14,His17]-pramlintide] ({C20 diacid-γGlu}-HHHCNTATCATQRLAEFLHHSSNNFGPILPPTNVGSNTY-NH2; disulfide 4-9)	106	10.07	9.68	9.02	> 200	44 (≈ 209 µg/mL)	–	–	–	29 (≈ 137 µg/mL)	–	157 (≈ 744 µg/mL)	> 200	> 200	> 200	> 200	–	10.05	> 200
CC[C@H](C)[C@H](NC(=O)[C@@H]1CCCN1C(=O)CNC(=O)[C@H](Cc1ccccc1)NC(=O)[C@H](CC(N)=O)NC(=O)[C@H](CC(N)=O)NC(=O)[C@H](CO)NC(=O)[C@H](CO)NC(=O)[C@H](Cc1c[nH]cn1)NC(=O)[C@H](Cc1cnc[nH]1)NC(=O)[C@H](CC(C)C)NC(=O)[C@H](Cc1ccccc1)NC(=O)[C@H](CCC(=O)O)NC(=O)[C@H](C)NC(=O)[C@H](CC(C)C)NC(=O)[C@H](CCCNC(=N)N)NC(=O)[C@H](CCC(N)=O)NC(=O)[C@@H](NC(=O)[C@H](C)NC(=O)[C@@H]1CSSC[C@H](NC(=O)[C@H](CCCCN)NC(=O)CC[C@H](NC(=O)CCCCCCCCCCCCCCCCCCC(=O)O)C(=O)O)C(=O)N[C@@H](CC(N)=O)C(=O)N[C@@H]([C@@H](C)O)C(=O)N[C@@H](C)C(=O)N[C@@H]([C@@H](C)O)C(=O)N1)[C@@H](C)O)C(=O)N[C@@H](CC(C)C)C(=O)N1CCC[C@H]1C(=O)N1CCC[C@H]1C(=O)N[C@H](C(=O)N[C@@H](CC(N)=O)C(=O)N[C@H](C(=O)NCC(=O)N[C@@H](CO)C(=O)N[C@@H](CC(N)=O)C(=O)N[C@H](C(=O)N1CCC[C@H]1C(N)=O)[C@@H](C)O)C(C)C)[C@@H](C)O [Example 52, N-alpha-[(S)-4-Carboxy-4-(19-carboxynonadecanoylamino)butyryl]-[Glu14,His17,Pro37]-pramlintide] ({C20 diacid-γGlu}-KCNTATCATQRLAEFLHHSSNNFGPILPPTNVGSNTP-NH2; disulfide 2-7)	105	10.21	10.27	10.12	> 200	> 200	> 200	> 200	> 200	> 200	> 200	> 200	> 200	> 200	> 200	> 200	–	9.80	> 200
